According to BindingDB's records for doi:10.1021/bi900167q (Duke University, 2009):

Target: T1, UDP-3-O-acyl-N-acetylglucosamine deacetylase (Escherichia coli (strain K12), UniProt P0A725)
T1 sequence (P0A725 whole entry): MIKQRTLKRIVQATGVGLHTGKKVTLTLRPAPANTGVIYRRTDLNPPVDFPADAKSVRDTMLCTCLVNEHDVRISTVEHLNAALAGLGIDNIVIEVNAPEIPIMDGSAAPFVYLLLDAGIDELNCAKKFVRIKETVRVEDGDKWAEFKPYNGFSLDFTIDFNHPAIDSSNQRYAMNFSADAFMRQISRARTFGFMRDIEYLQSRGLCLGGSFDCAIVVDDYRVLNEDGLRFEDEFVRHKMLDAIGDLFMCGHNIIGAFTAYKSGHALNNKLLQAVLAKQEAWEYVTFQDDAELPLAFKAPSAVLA
Test: LpxC Assay
Source text: Inhibition assay using E. coli LpxC.

| SMILES | IC50 [µM] |
| --- | --- |
| O=c1ccn(C2OC(CO/N=C/c3ccc(O)c(O)c3O)C(O)C2O)c(=O)[nH]1 (stereo not given) [1-68A analogue] | 27 |
| O=c1ccn(C2OC(CO/N=C/c3ccc(O)c(O)c3)C(O)C2O)c(=O)[nH]1 (stereo not given) [1-68Aa analogue] | 30 |
| O=c1ccn(C2OC(CO/N=C/c3cccc(O)c3O)C(O)C2O)c(=O)[nH]1 (stereo not given) [1-68Ac analogue] | > 500 |
| O=c1ccn(C2OC(CO/N=C/c3cc(O)c(O)c(O)c3)C(O)C2O)c(=O)[nH]1 (stereo not given) [1-68Ad analogue] | > 500 |
| O=C(CO/N=C/c1ccc(O)c(O)c1O)NCC1OC(n2ccc(=O)[nH]c2=O)C(O)C1O (stereo not given) [2-68A analogue] | 120 |
